Values joined by “and” are separate entries in the source; they are usually repeats but may differ in a detail not shown here. Equal entries are not always repeated. Where no end group is shown, it is not given here.
Legend:
[1] = system: angiotensin II receptors; assay: Binding of [^125 I] angiotensin II to isolated hepatic receptor; design: species or system Rabbit; conditions: concentration that inhibits binding of radiolabelled angiotensin II by 50%; 0.25 nM label; 60 minutes at 20° C.
Experimental: Rabbit livers were homogenized, and were centifuged in order to isolate particles sedimenting between 1,000 and 100,000 xg. Binding activity was solublized with 1% digitonin, followed by ammonium sulfate fractionation between 49 and 65% satuation followed by DEAE- cellulose chromatography at pH 7.5 using a linear gradient between 0.0 and 0.3M KCl.
The reaction is initiated by addition of the receptor and samples are incubated for 60 minutes at 20° C. The reaction is terminated with 1 ml of cold 0.5% charcoal/0.05% Dextran in 100 mM Tris-HCl, pH 7.5.
The complete system under these conditions regularly yields about 10,000 cpm of bound radioactivity.

[2] = target: T1, I^125 ACTH (1-39) (Homo sapiens, UniProt P01189); assay: ^125 I-ACTH binding to peptide-coated microtiter wells
T1 construct: I^125 ACTH (1-39) (New England Nuclear Boston, MA); purchased New England Nuclear (Boston, MA)
T1 sequence (P01189 138-176 limits assumed): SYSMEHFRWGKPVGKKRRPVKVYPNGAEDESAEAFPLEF
Experimental: Utilizing techniques described in Example 1B, polyvinyl microtiter wells were coated with 3'-5' HTCA from a 1 mM solution thereof or with BSA.
The BSA and 3'-5' HTCA coated wells were washed and then treated with one of three solutions of I^125 ACTH (1-39) (New England Nuclear Boston, MA) having different concentrations. After a forty five minute incubation period the solution was removed and the microtiter wells extensively washed. The microtiter wells were separated and assayed for iodine^125content in a Beckman Gamma 5500 gamma counter. Bound ^125 I-ACTH was measured in duplicate at three concentrations in the absence and presence of excess unlabelled ACTH.
Utilizing the cRNA sequence and HTCA sequence shown in Table 8 of Example 1A, a series of peptides having a carboxy-terminal portion of the HTCA amino acid were synthesized. A pentamer (5-mer) contained the amino acid sequence: H2 N-Phe-His-Gly-Val-Arg-COOH. A decamer (10-mer) contained the amino acid sequence: H2 N-[…]COOH. A twenty membered peptide (20-mer) contained the amino acids sequence: H2 N-[…] Val-Arg-COOH. Each of thes peptides was used to coat microtiter wells and the coated wells tested for the ability to bind ^125 I-ACTH as described in Example 1C.
A 24-mer HTCA variant (R-HTCA) with reversed amino acid sequence directionality (amino-terminal and carboxy-terminal ends being reversed) was synthesized and had the following sequence: H2 N-[…] Arg-His-Leu-His-Val-Gly-COOH. The well-coating and ^125 I-ACTH binding procedures were performed as described in Example 1-C and the resultant data shown in Table 11.

[3] = system: HTCA; assay: ELISA binding of immunoglobulins to HTCA-coated plates; conditions: Plates coated with HTCA
Experimental: (§1) Two peptides complementary to ACTH, described in Examples 1B and 1C as HTCA and 3'-5' HTCA, were each coupled to Keyhole Limpet Hemocyanin (KLH) with glutaraldeyde (1 mg peptide, 1 mg KLH, 30 mM glutaraldehyde for 30 minutes at room temperature followed by dialysis) to prepare antigens for rabbit immunization. Two rabbits were injected separately with 250 ug of peptide-KLH antigens weekly for four weeks. Each rabbit was bled biweekly for three weeks following the last injection. Antibodies representing the total immunoglobulin from serum of each rabbit was purified by precipitation from serum with 50% saturated ammonium sulfate at 4° C. followed by standard ion exchange chromatography on a DEAE column.
To examine the binding of each of the immunoglobulins to each of the peptides, enzyme-linked immunosorbant assays were performed. In these assays, one of the complementary peptides was coated onto polycarbonate plates in a carbonate coating buffer at pH 9.0 overnight. Unbound peptide was removed by washing three times with phosphate buffered saline (PBS)-TWEEN 20. Various amounts of immunoglobulins were added to peptide-coated wells in PBS-TWEEN 20 solution and incubated for one hour. Unbound immunoglobulin was removed by washing with PBS-TWEEN 20. To each well was added a 1:300 dilution of goat anti-rabbit IgG coupled to alkaline phosphatase enzyme. After one hour the wells were washed with PBS-TWEEN 20 to remove unbound secondary antibodies. The amount of remaining secondary antibody was determined by reacting p-nitrophenyl phosphate with the remaining aklaline phosphatase enzyme for 15 minutes, stopping the reaction with 3M NaOH, and measuring nitrophenol produced spectrophotometrically at 490 nm.

[4] = system: 3'-5' HTCA; assay: ELISA binding of immunoglobulins to 3'-5' HTCA-coated plates; conditions: Plates coated with 3'-5' HTCA; antibody 0.11 mg/ml
Experimental: as §1
To examine the binding of each of the immunoglobulins to each of the peptides, enzyme-linked immunosorbant assays were performed. In these assays, one of the complementary peptides was coated onto polycarbonate plates in a carbonate coating buffer at pH 9.0 overnight. Unbound peptide was removed by washing three times with phosphate buffered saline (PBS)-TWEEN 20. […] The amount of remaining secondary antibody was determined by reacting p-nitrophenyl phosphate with the remaining aklaline phosphatase enzyme for 15 minutes, stopping the reaction with 3M NaOH, and measuring nitrophenol produced spectrophotometrically at 490 nm.

[5] = target: T2, ^125 I-ACTH (Homo sapiens, UniProt P01189); assay: Solid-phase binding of ^125 I-ACTH to 5'-3' and 3'-5' complementary peptides
T2 construct: ACTH plates+immunized rabbit immunoglobulin
T2 sequence (P01189 138-176 limits assumed): T1 sequence (P01189 138-176 limits assumed)
Experimental: A solid-phase binding assay was used to determine the ability of both the 5'-to-3' and the 3'-to-5'-complementary-RNA-strand peptides (see Examples 1A and 1C) to bind ^125 I-ACTH. The peptides were diluted in phosphate-buffered saline (140 mM-NaCl/3 mM-KCl/0.1% NaN3 /20 mM-phosphate buffer, pH 7.4) to 2 mg/ml, and 0.2 ml/well was placed into poly(vinyl chloride) micro-titre plates (Becton and Dickinson, Oxnard, CA, U.S.A.). After 18 h at 4° C., unbound peptide was removed by washing three times with phosphate-buffered saline containing 0.1% bovine serum albumin (Sigma Chemical Co., St. Louis, MO, U.S.A.). ^125 I-ACTH was diluted to various concentrations with phosphate-buffered saline containing 0.1% bovine serum albumin and incubated in peptide-coated wells for 60 minutes at 4° C. […] After incubation, unbound radiolabel was washed out with phosphate-buffered saline containing 0.1% bovine serum albumin, and the radioactivity of individual wells was measured by gamma-radiation counting. The amount of specifically bound radioactivity was determined by blocking ^125 I-ACTH binding with unlabelled ACTH. Additional controls included coating wells with insulin or bovine serum albumin (2 mg/ml) before the addition of the ^125 I-ACTH.

ID50 [1] | binding of ^125 I-ACTH to coated wells (in words) [2] | Bound CPM - ^125 I-ACTH ([2]; 1:3 dilution ^125 I-ACTH) | Bound CPM - ^125 I-ACTH ([2]; 1:3 dilution ^125 I-ACTH, + Excess ACTH) | Bound CPM - ^125 I-ACTH ([2]; 1:9 dilution ^125 I-ACTH, + Excess ACTH) | Bound CPM - ^125 I-ACTH ([2]; conc ^125 I-ACTH) | Bound CPM - ^125 I-ACTH ([2]; conc ^125 I-ACTH, + Excess ACTH) | Absorbance at 490 nm ([3]; antibody 0.04 mg/ml) | Absorbance at 490 nm ([3]; antibody 0.11 mg/ml) | Absorbance at 490 nm ([3]; antibody 0.3 mg/ml) | Absorbance at 490 nm ([3]; antibody added 0.012 mg/ml) | Absorbance at 490 nm [4] | effectiveness in binding ACTH (in words) [5] | Substance
3,100 nM | – | – | – | – | – | – | – | – | – | – | – | – | Ac-KGVYIHAL-NH2 [CCA-AII (Ac, Am), Ac--LYS--GLY--VAL--TYR--ILE--HIS--ALA--LEU--Am]
– | binds to coated 3'-5' HTCA | 601 CPM and 590 CPM | 287 CPM and 299 CPM | 191 CPM and 183 CPM | 1819 CPM and 1716 CPM | 616 CPM and 615 CPM | 0.24 ± 0.08 | 0.37 ± 0.09 | 0.91 ± 0.11 | 0.08 ± 0.04 | 0.89 ± 0.23 | equally effective in binding ACTH | RMRYLVKATPFGHPFFAAGHFHMG [3'-5' HTCA]
